PubChem BioAssay (NCI)
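Abbreviation: GI50, concentration required for 50% inhibition of growth. Definition used: TGI = concentration required for complete inhibition of growth.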

Key:
Assay in all cases: DTP human tumour cell line panel, 384-well format
786-0 renal = test system: 786-0 renal
A498 renal = test system: A498 renal
A549 NSCLC = test system: A549 NSCLC
ACHN renal = test system: ACHN renal
BT-549 breast = test system: BT-549 breast
CAKI-1 renal = test system: CAKI-1 renal
CCRF-CEM leukemia = test system: CCRF-CEM leukemia
COLO 205 colon = test system: COLO 205 colon
DU-145 prostate = test system: DU-145 prostate
EKVX NSCLC = test system: EKVX NSCLC
HCC-2998 colon = test system: HCC-2998 colon
HCT-15 colon = test system: HCT-15 colon
HOP-62 NSCLC = test system: HOP-62 NSCLC
HOP-92 NSCLC = test system: HOP-92 NSCLC
HS 578T breast = test system: HS 578T breast
HT29 colon = test system: HT29 colon
IGROV1 ovarian = test system: IGROV1 ovarian
K-562 leukemia = test system: K-562 leukemia
KM12 colon = test system: KM12 colon
LOX IMVI melanoma = test system: LOX IMVI melanoma
M14 melanoma = test system: M14 melanoma
MALME-3M melanoma = test system: MALME-3M melanoma
MCF7 breast = test system: MCF7 breast
MDA-MB-231 breast = test system: MDA-MB-231 breast
MDA-MB-435 melanoma = test system: MDA-MB-435 melanoma
MDA-MB-468 breast = test system: MDA-MB-468 breast
MOLT-4 leukemia = test system: MOLT-4 leukemia
NCI-H226 lung = test system: NCI-H226 lung
NCI-H23 lung = test system: NCI-H23 lung
NCI-H322M lung = test system: NCI-H322M lung
NCI-H460 NSCLC = test system: NCI-H460 NSCLC
NCI-H522 lung = test system: NCI-H522 lung
NCI/ADR-RES ovarian = test system: NCI/ADR-RES ovarian
OVCAR-3 ovarian = test system: OVCAR-3 ovarian
OVCAR-4 ovarian = test system: OVCAR-4 ovarian
OVCAR-5 ovarian = test system: OVCAR-5 ovarian
OVCAR-8 ovarian = test system: OVCAR-8 ovarian
PC-3 prostate = test system: PC-3 prostate
RPMI-8226 leukemia = test system: RPMI-8226 leukemia
RXF 393 renal = test system: RXF 393 renal
SF-268 CNS = test system: SF-268 CNS
SF-295 CNS = test system: SF-295 CNS
SF-539 CNS = test system: SF-539 CNS
SK-MEL-28 melanoma = test system: SK-MEL-28 melanoma
SK-MEL-5 melanoma = test system: SK-MEL-5 melanoma
SK-OV-3 ovarian = test system: SK-OV-3 ovarian
SN12C renal = test system: SN12C renal
SNB-19 CNS = test system: SNB-19 CNS
SNB-75 CNS = test system: SNB-75 CNS
SR leukemia = test system: SR leukemia
SW-620 colon = test system: SW-620 colon
T-47D breast = test system: T-47D breast
TK-10 renal = test system: TK-10 renal
U251 glioblastoma = test system: U251 glioblastoma
UACC-62 melanoma = test system: UACC-62 melanoma
UO-31 renal = test system: UO-31 renal

In the case of `CC(C)(C(=O)NCC(F)(F)C(F)(F)F)C(=O)N[C@@H]1C(=O)Nc2ccccc2-c2ccccc21`, the GI50 ([…]-0 renal) is reported as 58.5 µM, the TGI (786-0 renal) is reported as > 100 µM and the GI50 (A498 renal) is reported as 47 µM. The TGI (A498 renal) was > 100 µM, the GI50 (A549 NSCLC) was 33.6 µM and the TGI (A549 NSCLC) was > 100 µM. For the same compound, the GI50 (ACHN renal) was 54.8 µM, the TGI (ACHN renal) was > 100 µM and the GI50 (BT-549 breast) was 39.2 µM. The TGI (BT-549 breast) was > 100 µM, the GI50 (CAKI-1 renal) was > 100 µM and the TGI (CAKI-1 renal) was > 100 µM. The GI50 (CCRF-CEM leukemia) was 18.6 µM, the TGI (CCRF-CEM leukemia) was 69.8 µM and the GI50 (COLO 205 colon) was 44.6 µM. For the same compound, the TGI (COLO 205 colon) was > 100 µM, the GI50 (DU-145 prostate) was 55.9 µM and the TGI (DU-145 prostate) was > 100 µM. For the same compound, the GI50 (EKVX NSCLC) was 29 µM, the TGI (EKVX NSCLC) was > 100 µM and the GI50 (HCC-2998 colon) was 24 µM. For the same compound, the TGI (HCC-2998 colon) was > 100 µM, the GI50 (HCT-15 colon) was 43.3 µM and the TGI (HCT-15 colon) was > 100 µM. The GI50 (HOP-62 NSCLC) was 74.6 µM, the TGI (HOP-62 NSCLC) was > 100 µM and the GI50 (HOP-92 NSCLC) was 32.5 µM. The TGI (HOP-92 NSCLC) was > 100 µM, the GI50 (HS 578T breast) was 32 µM and the TGI (HS 578T breast) was > 100 µM. The GI50 (HT29 colon) was 37.2 µM, the TGI (HT29 colon) was > 100 µM and the GI50 (IGROV1 ovarian) was 92.1 µM. The TGI (IGROV1 ovarian) was > 100 µM, the GI50 (K-562 leukemia) was 44.8 µM and the TGI (K-562 leukemia) was > 100 µM. The GI50 (KM12 colon) was 53.2 µM, the TGI (KM12 colon) was > 100 µM and the GI50 (LOX IMVI melanoma) was > 100 µM. The TGI (LOX IMVI melanoma) was > 100 µM, the GI50 (M14 melanoma) was 89.2 µM and the TGI (M14 melanoma) was > 100 µM. The GI50 (MALME-3M melanoma) was 22.2 µM, the TGI (MALME-3M melanoma) was > 100 µM and the GI50 (MCF7 breast) was 22 µM. The TGI (MCF7 breast) was > 100 µM, the GI50 (MDA-MB-231 breast) was 51.2 µM and the TGI (MDA-MB-231 breast) was > 100 µM. The GI50 (MDA-MB-435 melanoma) was 92.7 µM, the TGI (MDA-MB-435 melanoma) was > 100 µM and the TGI (MDA-MB-468 breast) was 33.3 µM. It also gave a GI50 (MOLT-4 leukemia) of 11.5 µM, a TGI (MOLT-4 leukemia) of 25.6 µM and a GI50 (NCI-H226 lung) of 45.8 µM. The TGI (NCI-H226 lung) was > 100 µM, the GI50 (NCI-H23 lung) was 41.1 µM and the TGI (NCI-H23 lung) was > 100 µM. The GI50 (NCI-H322M lung) was > 100 µM, the TGI (NCI-H322M lung) was > 100 µM and the GI50 (NCI-H460 NSCLC) was 46 µM. For the same compound, the TGI (NCI-H460 NSCLC) was > 100 µM, the GI50 (NCI-H522 lung) was 42.4 µM and the TGI (NCI-H522 lung) was > 100 µM. For the same compound, the GI50 (NCI/ADR-RES ovarian) was 30 µM, the TGI (NCI/ADR-RES ovarian) was > 100 µM and the GI50 (OVCAR-3 ovarian) was 36.3 µM. For the same compound, the TGI (OVCAR-3 ovarian) was > 100 µM, the GI50 (OVCAR-4 ovarian) was 17.5 µM and the TGI (OVCAR-4 ovarian) was 76.3 µM. The GI50 (OVCAR-5 ovarian) was > 100 µM, the TGI (OVCAR-5 ovarian) was > 100 µM and the GI50 (OVCAR-8 ovarian) was 69.9 µM. The TGI (OVCAR-8 ovarian) was > 100 µM, the GI50 (PC-3 prostate) was 41.2 µM and the TGI (PC-3 prostate) was > 100 µM. For the same compound, the GI50 (RPMI-8226 leukemia) was 18.8 µM, the TGI (RPMI-8226 leukemia) was 76.4 µM and the GI50 (RXF 393 renal) was 27.3 µM. For the same compound, the TGI (RXF 393 renal) was > 100 µM, the GI50 (SF-268 CNS) was > 100 µM and the TGI (SF-268 CNS) was > 100 µM. The GI50 (SF-295 CNS) was 52.5 µM, the TGI (SF-295 CNS) was > 100 µM and the GI50 (SF-539 CNS) was > 100 µM. The TGI (SF-539 CNS) was > 100 µM, the GI50 (SK-MEL-28 melanoma) was 46.9 µM and the TGI (SK-MEL-28 melanoma) was > 100 µM. For the same compound, the GI50 (SK-MEL-5 melanoma) was 39.1 µM, the TGI (SK-MEL-5 melanoma) was > 100 µM and the GI50 (SK-OV-3 ovarian) was 90.8 µM. The TGI (SK-OV-3 ovarian) was > 100 µM, the GI50 (SN12C renal) was > 100 µM and the TGI (SN12C renal) was > 100 µM. For the same compound, the GI50 (SNB-19 CNS) was 63.5 µM, the TGI (SNB-19 CNS) was > 100 µM and the GI50 (SNB-75 CNS) was 63.6 µM. For the same compound, the TGI (SNB-75 CNS) was > 100 µM, the GI50 (SR leukemia) was 23.3 µM and the TGI (SR leukemia) was > 100 µM. The GI50 (SW-620 colon) was > 100 µM, the TGI (SW-620 colon) was > 100 µM and the GI50 (T-47D breast) was 6.31 µM. For the same compound, the TGI (T-47D breast) was 48.1 µM, the GI50 (TK-10 renal) was 88.7 µM and the TGI (TK-10 renal) was > 100 µM. The GI50 (U251 glioblastoma) was > 100 µM, the TGI (U251 glioblastoma) was > 100 µM and the GI50 (UACC-62 melanoma) was 20.4 µM. The TGI (UACC-62 melanoma) was > 100 µM, the GI50 (UO-31 renal) was 74.6 µM and the TGI (UO-31 renal) was > 100 µM.
